Measurements taken from patent publication US20110263454A1, “Methods of Identifying Functional Characteristics of Promoters, Transcription Modifying Proteins and Transcription Modulating Agents” (Salk Institute for Biological Studies, priority 2008, published 2011).

How the values were obtained:
mLeptin promoter = test: NHR-promoter luciferase screen, mLeptin promoter; format: cell-based, mouse; conditions: for Luc. act., normalized to lacZ / Normalized Luc. act., normalized to control: Table 7, mLeptin; for Results of assays of transcription factor (+/- ligand) with mLeptin: Table 6d, luciferase activity relative to control (control = 1.00); for luciferase/LacZ, mLeptin (selected results): mLeptin promoter-luciferase, NHR +/- ligand, control = 1.0
Protocol: (§1) The use, feasibility, and reproducibility of the functional NHR-promoter screen in a 48-well format have been tested validated. Briefly, there were co-expressed 50 ng of each NHR/NHR homodimer or NHR/RXR heterodimer with 100 ng promoter/luciferase construct and 50 ng of LacZ (as a control for transfection efficiency) in CV-1 cells using Fugene HD (Roche) as a transfection reagent (alternatively or additionally, a CMV-YFP construct can be used as a transfection control). Each of the nuclear hormone receptors that were used in these experiments was cloned into a pcDNA3.1 vector and comprised a C-terminally linked V5H6 tag. Twenty-four hours after transfection, appropriate ligands were added, where applicable, (see Table 5 for various ligands and concentrations and after 48 hrs, samples were assayed for luciferase and LacZ activity. To measure for luciferase activity 15 ul of sample was added to 30 ul of luciferase buffer (20 mM tricine, 1.07 mM MgCarbonate, 2.67 mM MgSulfate, 0.1 mM Naz-EDTA, 5 mM DTT, 5 mM ATP, 0.15 mg/ml CoA, 0.5 mM Luciferin), mixed briefly, and run in a Perkin Elmer Victor 5 luminometer. Thus, the functional NHR-promoter screen was used to observe the transcriptional activity of 29 promoters from various physiological pathways including inflammation, lipid and sugar metabolism, cholesterol transport, xenobiotic metabolism, and circadian rhythm.
(§2) The promoters that facilitate transcription of the indicated gene products that were tested using the protocols described herein are listed in the first row of the table. The nuclear hormone receptors and, where applicable, ligands that were assayed for their transcriptional effects on the promoters are listed in the first column of the table. The data represent the luciferase activity of each sample normalized to both the lacZ activity of that sample and to a control, e.g., no NHR or ligand, as customary in the art. As described previously, these normalizations allow the transcriptional activity of each reporter cell to be compared to other samples.
(§3) Tables 7-40 show the transcriptional effects of the hormone receptors, and, where applicable, ligands (orphan receptors are screened without ligand), on each individual promoter. […] The control data of each table are shown in their last rows.

hPPARg2 promoter = test: NHR-promoter luciferase screen, hPPARg2 promoter; format: cell-based, human; conditions: for Luc. act., normalized to lacZ / Normalized Luc. act., normalized to control: PPARG2 promoter, hormone receptor with or without its ligand; for Normalized Luc. act., normalized to control: relative to control; for Results of assays of transcription factor (+/- ligand) with hPPARg2: Table 6d, luciferase activity relative to control (control = 1.00)
Protocol: as §1, §2, §3

mGhrelin promoter = test: NHR-promoter luciferase screen, mGhrelin promoter; format: cell-based, mouse; conditions: for Luc. act., normalized to lacZ / Normalized Luc. act., normalized to control: Table 8, mGhrelin; for Results of assays of transcription factor (+/- ligand) with mGhrelin: Table 6d, luciferase activity relative to control (control = 1.00); for luciferase/LacZ, mGhrelin (selected results): mGhrelin promoter-luciferase, NHR +/- ligand, control = 1.0
Protocol: as §1, §2, §3

hG6PD promoter = test: NHR-promoter luciferase screen, hG6PD promoter; format: cell-based, human; conditions: for Luc. act., normalized to lacZ / Normalized Luc. act., normalized to control: G6PD promoter reporter, co-transfected HR, without or with its ligand; for Normalized Luc. act., normalized to control: relative to control; for luciferase activity normalized to lacZ activity and to a control, hG6PD: hG6PD promoter-luciferase, CV-1 cells, NHR +/- ligand, control = 1.00
Protocol: as §1, §2, §3

hMyoD promoter = test: NHR-promoter luciferase screen, hMyoD promoter; format: cell-based, human; conditions: for Luc. act., normalized to lacZ / Normalized Luc. act., normalized to control: MyoD promoter reporter, co-transfected HR, without or with its ligand; for Normalized Luc. act., normalized to control: relative to control; for luciferase activity normalized to lacZ activity and to a control, hMyoD: hMyoD promoter-luciferase, CV-1 cells, NHR +/- ligand, control = 1.00
Protocol: as §1, §2, §3

hMDR1 promoter = test: NHR-promoter luciferase screen, hMDR1 promoter; format: cell-based, human; conditions: for Luc. act., normalized to lacZ / Normalized Luc. act., normalized to control: MDR1 promoter, HR/ligand component; for hMDR1 promoter reporter activity: transcription factor +/- ligand, control = 1.00
Protocol: as §1, §2, §3

Substance | Luc. act., normalized to lacZ (mLeptin promoter) | Normalized Luc. act., normalized to control (mLeptin promoter) | Results of assays of transcription factor (+/- ligand) with mLeptin (mLeptin promoter) | Luc. act., normalized to lacZ (hPPARg2 promoter) | Normalized Luc. act., normalized to control (hPPARg2 promoter) | Results of assays of transcription factor (+/- ligand) with hPPARg2 (hPPARg2 promoter) | Luc. act., normalized to lacZ (mGhrelin promoter) | Normalized Luc. act., normalized to control (mGhrelin promoter) | Results of assays of transcription factor (+/- ligand) with mGhrelin (mGhrelin promoter) | Luc. act., normalized to lacZ (hG6PD promoter) | Normalized Luc. act., normalized to control (hG6PD promoter) | luciferase activity normalized to lacZ activity and to a control, hG6PD (hG6PD promoter) | Luc. act., normalized to lacZ (hMyoD promoter) | Normalized Luc. act., normalized to control (hMyoD promoter) | luciferase activity normalized to lacZ activity and to a control, hMyoD (hMyoD promoter) | Luc. act., normalized to lacZ (hMDR1 promoter) | Normalized Luc. act., normalized to control (hMDR1 promoter) | hMDR1 promoter reporter activity (hMDR1 promoter) | luciferase/LacZ, mLeptin (selected results) (mLeptin promoter) | luciferase/LacZ, mGhrelin (selected results) (mGhrelin promoter)
AR: Androsterone Receptor (NR3C4), cDNA driver | 2.5 | 0.8 | 0.84 | 2.7 | 1.3 | 1.34 | 39.2 | 0.8 | 0.75 | 41.5 | 1.1 | 1.11 | 57.5 | 0.9 | 0.91 | 0.2 | 0.6 | 0.60 | – | –
ERR1: Estrogen Related Receptor α (NR3B1, ERRa), cDNA driver | 2.6 | 0.9 | 0.88 | 1.7 | 0.8 | 0.84 | 81.4 | 1.6 | 1.56 | 59.1 | 1.6 | 1.58 | 69.1 | 1.1 | 1.09 | 0.4 | 1.2 | 1.20 | – | –
GR: Glucocorticoid Receptor (NR3C1), cDNA driver | 1.7 | 0.6 | 0.58 | 2.3 | 1.1 | 1.15 | 14.3 | 0.3 | 0.27 | 22.3 | 0.6 | 0.60 | 26.4 | 0.4 | 0.42 | 0.1 | 0.4 | 0.39 | 0.6 | 0.3
LXRa: Liver X Receptor α (NR1H3), cDNA driver | 1.9 | 0.7 | 0.65 | 1.3 | 0.6 | 0.64 | 56.7 | 1.1 | 1.08 | 60.5 | 1.6 | 1.62 | 60.1 | 0.9 | 0.95 | 0.2 | 0.5 | 0.51 | – | –
NR4a1: NR4a1 (NR4A1; NUR77), nuclear hormone receptor cDNA driver | 2.3 | 0.8 | 0.80 | 1.6 | 0.8 | 0.81 | 54.5 | 1.0 | 1.04 | 77.6 | 2.1 | 2.07 | 152.5 | 2.4 | 2.41 | 0.4 | 1.3 | 1.29 | 0.8 | 1.0
PNR: Photoreceptor-specific Nuclear Receptor (NR2E3), cDNA driver | 2.0 | 0.7 | 0.68 | 1.0 | 0.5 | 0.51 | 32.4 | 0.6 | 0.62 | 45.9 | 1.2 | 1.23 | 37.1 | 0.6 | 0.59 | 0.2 | 0.5 | 0.52 | – | –
PPARa: Peroxisome proliferator activated receptor α (NR1C1), cDNA driver | 2.4 | 0.8 | 0.81 | 2.4 | 1.2 | 1.20 | 56.2 | 1.1 | 1.07 | 55.6 | 1.5 | 1.49 | 63.7 | 1.0 | 1.01 | 0.2 | 0.5 | 0.51 | – | –
PPARg: Peroxisome proliferator activated receptor γ (NR1C3), cDNA driver | 2.9 | 1.0 | 1.00 | 2.2 | 1.1 | 1.08 | 93.9 | 1.8 | 1.80 | 66.0 | 1.8 | 1.77 | 74.5 | 1.2 | 1.18 | 0.3 | 0.8 | 0.83 | 1.0 | 1.8
RXRa: Retinoic X Receptor α (NR2B1), cDNA driver | 2.3 | 0.8 | 0.77 | 1.3 | 0.7 | 0.67 | 57.4 | 1.1 | 1.10 | 45.6 | 1.2 | 1.22 | 51.2 | 0.8 | 0.81 | 0.2 | 0.5 | 0.51 | – | –
SF-1: Steroidogenic Factor 1 (NR5A1, SF1), cDNA driver | 4.7 | 1.6 | 1.60 | 2.2 | 1.1 | 1.09 | 273.2 | 5.2 | 5.23 | 124.1 | 3.3 | 3.32 | 151.2 | 2.4 | 2.39 | 0.7 | 2.4 | 2.36 | – | –
